Test results taken from patent publication US20160166637A1, “METHODS OF TREATING A CANCER THROUGH TARGETED DISRUPTION OF ALPHA CONNEXIN 43-ZONULA OCCLUDENS-1 (ZO-1) INTERACTION” (Virginia Tech Intellectual Properties, Inc., priority 2013, published 2016).

Assays:
Cx43 CT domain = Cx43 CT domain (Homo sapiens, UniProt P17302); assay: Dot blot binding of biotinylated AAP10 peptides to Cx43 CT; conditions: biotinylated peptide, 500-1 ng
Excerpt: FIG. 5 is an image showing the results of a dot blot assay for testing binding of AAP10 and AAP10-pTyr with Connexin43-carboxy terminus (CT).
By contrast, the tyrosine phosphorylated isoform biotinylated AAP10-pTyr show no affinity for Cx43 CT.

[1] = in vivo; cited from earlier work
[2] = system: Cx-deficient C6 glioma cell line; assay: Cell aggregation assay on Cx-deficient cells; type: cell-based; conditions: 1 μM and 25 μM compared
U87MG glioma cells = assay: Cell aggregation assay, aggregation index (AI); type: cell-based, human; conditions: 25 μM, 48 hours, serum-free
Experimental: UM87MG glioma cells, which express Cx43, were cultured in serum-free conditions permissive to aggregation. The cells were treated with the ACT-1 peptide for 48 hours and then imaged with phase-contrast microscopy. […] To quantitate the extent of aggregation, ImageJ software was used to collect size information about the aggregates in these images and from that information an aggregation index was calculated for each image. The AI is defined as the total area of aggregation in a field divided by the number of single, unaggregated cells in that field. So an increase in the ratio of aggregation area to unaggregated cells would increase the AI and indicate a higher propensity to aggregate.

U87 glioma cells = assay: Boyden chamber motility assay (Example 3); type: cell-based, human; conditions: overnight pre-treatment in 10% serum, 4 hour incubation; vs no treatment and control peptide
Experimental: After an overnight peptide pre-treatment in 10% serum, two glioma cell lines, c6 and U87, were seeded in serum-free media containing peptides into Boyden chamber transwell inserts with 8 μm pores in the membrane and then filled the bottom wells with media containing 10% FBS as a chemoattractant. […] Then the migrated cells were fixed, stained with Hoescht dye, and imaged on an epifluorescence microscope.

GS9-6 cells = assay: Viability of glioma stem cell line; type: cell-based, human; conditions: alone or in combination
Experimental: FIG. 13 is a graph showing the effects of ACT-1 treatment at concentrations from 30 to 120 μM on the viability of the glial stem cell (GSC) line GS9-6 with or without temozolomide.
The ACT-1 peptide was tested on a glioma stem cell (GSC) line alone or in combination with temozolomide (TMZ).

GS9-6 glioma stem cells = assay: Sphere/colony formation assay (self-renewal); type: cell-based, human; conditions: FIG. 15
Excerpt: To further investigate the effect of ACT-1 on glioma stem cells, the present inventors measured the capacity of glioma stem cells to self-renew. The unique feature that makes glioma stem cells different from other glioma cells is that glioma stem cells are able to copy themselves (termed as self-renewal). The well-established approach to measure self-renewal of stem cells is sphere/colony formation assay. The self-renewal of GS9-6 glioma stem cells treated with ACT-1 was then monitored. […] Two different doses of ACT-1 and TMZ were tested. Both treatments inhibited the self-renewal of GS9-6 (FIGS. 16 and 17). Thus, the data strongly indicate that ACT-1 sensitizes glioblastoma cells to TMZ.

[3] = system: C6 cells stably expressing Cx43; assay: Boyden chamber motility assay (Example 4, serum-free pre-treatment); type: cell-based; conditions: both concentrations of ACT-1 (1 μM, 25 μM); 24 hours serum-free pre-treatment, 4 hours
Experimental: FIGS. 10A-10C are images of a motility experiment using C6 cells stably expressing Cx43 showing no treatment (FIG. 10A), 25 μM reverse sequence peptide (control peptide) (FIG. 10B) and 25 μM ACT-1 (FIG. 10C).
FIG. 10D is a graph showing the results of the motility experiment using C6 cells stably expressing Cx43 showing no treatment, 1 μM ACT-1, 25 μM ACT-1, 1 μM reverse sequence peptide (control peptide), and 25 μM reverse sequence peptide (control peptide).
(§1) In this example, peptides were added after cells were incubated in serum-free media, then 24 hours of pre-treatment was allowed in the serum-free conditions, and finally the cells were transferred, without typsinizing, to Boyden chamber and incubated for 4 hours. […] With this example, the results of the C6 cells seemed to be similar to wt-C6 cells.

wild-type C6 cells = assay: Boyden chamber motility assay (Example 4) on wild-type cells; type: cell-based; conditions: both concentrations of ACT-1 (1 μM, 25 μM)
Experimental: as §1
The same situation was true when the same experiment was performed on wild-type C6 cells.

LN229/GSCs = assay: Glioma xenograft mouse model, tumor growth; type: in vivo, mice; conditions: 200 μM/tumor ACT-1, 100 mg/kg TMZ
Excerpt: To further validate the therapeutic effect of ACT-1 in vivo, tumor growth was monitored using a glioma xenograft mouse model. As GS9-6 cells grow slowly in mice, the present inventors elected to use LN229/GSCs, isolated from LN229 human GBM cell line. […] LN229/GSCs were first injected into the flanks of immunocompromised mice and tumors (more than 100 mm3) were detected in all mice in 14 days. By contrast, GS9-6 cells form a tumor in 6 months (data not shown). Treatments at day 14 were then started. First, 100 mg/kg ACT-1 was injected subcutaneously. 24 hours later, mice were treated with 7.5 mg/kg TMZ (dissolved in DMSO) or vehicle DMSO intraperitoneally. Such treatment regime was repeated three times a week for three weeks, and tumor growth was monitored for another week. […] Taken together, these examples provide a firm support for potential clinical application of ACT-1 in treating human or canine glioblastoma patients.
FIG. 21 is a plot of tumor volume over 53 days for untreated, 200 μM/tumor ACT-1, 100 mg/kg TMZ treated, and combinatorial 200 μM/tumor ACT-1 and 100 mg/kg TMZ treated mice. FIG. 22 is a graph of tumor volumes at 53 days and FIG. 23 is an image of tumor volumes at 53 days for these treatments.

Cx43 CT = molecular target: T1, Cx43 CT (Homo sapiens, UniProt P17302); assay: EDAC cross-linking of ACT-1 and Cx43 carboxy terminal peptide (polyacrylamide gel); type: binding
T1 construct: EDAC cross-linking reaction of ACT-1 and connectin 43 carboxy terminal peptide
Excerpt: FIG. 6 is an image of a polyacrylamide gel showing EDAC cross-linking of ACT-1 and Cx43-CT.
FIG. 6 is an image of a polyacrylamide gel showing EDAC cross-linking reaction of ACT-1 and connectin 43 carboxy terminal peptide. […] ACT-1 is shown by the zero order cross-linker EDAC.

GBM cells = conditions: cited from earlier work
[4] = phase I, brain cancer patients; cited from earlier work
[5] = taken orally; cited from earlier work

T1 sequence (P17302 229-382 limits assumed): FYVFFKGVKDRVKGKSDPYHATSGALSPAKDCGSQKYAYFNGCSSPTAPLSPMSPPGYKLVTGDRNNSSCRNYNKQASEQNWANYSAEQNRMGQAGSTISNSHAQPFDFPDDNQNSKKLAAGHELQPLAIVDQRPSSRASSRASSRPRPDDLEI
Cx43 CT domain, sequence (P17302 229-382 limits assumed): as above

antiarrhythmic peptide 10 [AAP10]
affinity for the Cx43 CT domain in a dot blot (Cx43 CT domain): concentration dependent affinity

ACT-1: SEQ ID NO:9: Antennapedia sequence RQPKIWFPNRRKPWKK linked to Cx43 c-terminal 9 amino acids RPRPDDLEI (RQPKIWFPNRRKPWKKRPRPDDLEI)
half-life in the body [1]: less than a few hours | aggregation versus controls [2]: no significant difference in aggregation | formation of amorphous clumps (phase-contrast images) (U87MG glioma cells): tended to form amorphous clumps | aggregation index (AI) (U87MG glioma cells; Bonferroni t-test): significantly higher AIs relative to controls | cell migration across the Boyden chamber membrane (U87 glioma cells): significant decrease in cell migration | viability of GS9-6 cells (GS9-6 cells): only mildly reduced the viability | self-renewal of GS9-6 cells (GS9-6 glioma stem cells): not affected | decrease in migration [3]: 5 × | decrease in motility across the Boyden chamber (wild-type C6 cells): ~5 × | tumor volume at 53 days (LN229/GSCs): may promote tumor growth | effect of binding on Cx43 CT homodimers (Cx43 CT; EDAC cross-linking): reduces Cx43 CT homodimers | interaction with the Cx43 CT (EDAC cross-linking) (Cx43 CT; zero order cross-linker EDAC): interacts with the Cx43 CT

CC#C[C@]1(O)CC[C@H]2[C@@H]3CCC4=CC(=O)CCC4=C3[C@@H](c3ccc(N(C)C)cc3)C[C@@]21C [mifepristone]
sensitization of GBM cells to TMZ (GBM cells): sensitizes GBM cells to TMZ

cintredekin besudotox
adverse effects [4]: no significant adverse effects were observed

C[C@H]1c2cccc(O)c2C(=O)C2=C(O)[C@]3(O)C(=O)C(C(N)=O)=C(O)[C@@H](N(C)C)[C@@H]3[C@@H](O)[C@@H]21 [Doxycycline]
CSF to serum ratio [5]: ~0.26
